Data reported in patent US12715893B2, “Oxysterol compounds and uses thereof” (MAX BIOPHARMA, INC., priority 2020, dated 2026).

What was measured:
[1] = test system: Hedgehog target gene Gli1; experiment: Expression of Hedgehog target gene Gli1 (quantitative RT-PCR) in M2 cells; format: cell-based; settings: 5% FBS in DMEM, 1 μM and 5 μM, vs DMSO control (FIG. 6)
Method: (§1) The compounds described herein were tested on cell cultures to assess their effects on the mRNA expression of Hedgehog target genes Gli1. Conditioned medium (CM) was collected from CAPAN-1 human pancreatic tumor cells grown to confluence in DMEM containing 10% fetal bovine serum (FBS) and contains Hh proteins that activate the Hh pathway in cells receiving the CM. After 7 days of incubation of confluent cells with the described medium, CM was collected, spun for 5 minutes at 1800 rpm to remove dead cells and debris, and then frozen at −80° C. For treating cells, CM was thawed and diluted 1:2 to 1:6 with DMEM containing 5% FBS. NIH3T3 cells and M2 cells were cultured in 12-well plates with DMEM containing 10% FBS. The cells were then treated with DMEM containing 5% FBS or CM in the presence or absence of the compounds prepared in DMSO when they reach confluence. Quantitative RT-PCR was then performed according to the following approach. After 72 to 96 hours of the treatments, the cells were lysed and subjected to RNA extraction with RNease Plus Min kit (Qiagen). A portion of RNA from each well was subjected to Reverse Transcription (RT) using iScript Reverse Transcription Supermix (BioRad). QPCR was performed to test the expression of Hh target gene Gli1 using IQ SYBR Green Supermix (BioRad).

[2] = test system: Hedgehog target gene Gli1; experiment: Expression of Hedgehog target gene Gli1 (quantitative RT-PCR) in NIH3T3 cells; format: cell-based; settings: for effect on Hh signaling (relative expression of Gli1) / effect on Gli/Hh signaling in cells treated with Conditioned Medium (relative expression of Gli1): 5 μM and 10 μM; for effect on Hh signaling (relative expression of Gli1): vs DMSO control (FIG. 5); for effect on Gli/Hh signaling in cells treated with Conditioned Medium (relative expression of Gli1): CAPAN-1 conditioned medium (CM), vs CM (FIG. 5, FIG. 7)
Method: as §1

Hh signaling = settings: background statement; Compound 8 in mesenchymal cells; cited from earlier work
TGFβ signaling = settings: background statement; cited from earlier work
[3] = test system: Hedgehog target gene Gli1; experiment: Expression of Hedgehog target gene Gli1 (Q-RT-PCR, normalized to Oaz1) in C3H10T1/2 cells; format: cell-based; settings: 5 μM and 10 μM, 72 hours (FIG. 9)
Method: as §1, with “A portion of RNA from each well was subjected to Reverse Transcription (RT) using iScript Reverse Transcription Supermix (BioRad). QPCR was performed to test the expression of Hh target gene Gli1 using IQ SYBR Green Supermix (BioRad).” left out
In a similar manner, C3H10T1/2 cells were pretreated for 2 hours with Compound 17 in DMEM containing 5% FBS. […] After 72 hours, RNA was extracted and analyzed by Q-RT-PCR for the expression of Hh target gene Gli1 and normalized to Oaz1 expression.

Row | SMILES | effect on Gli signaling (relative expression of Gli1) [1] | effect on Hh signaling (Hh signaling) | also measured
1 | C[C@]12CC[C@H]3[C@@H](CC=C4C[C@@H](O)CC[C@@]43C)[C@@H]1CC[C@@H]2[C@H](O)CCc1ccc(F)cc1 [Compound 1, (3S,8S,9S,10R,13S,14S,17S)-17-((R)-3-(4-fluorophenyl)-1-hydroxypropyl)-10,13-dimethyl-2,3,4,7,8,9,10,11,12,13,14,15,16,17-tetradecahydro-1H-cyclopenta[a]phenanthren-3-ol] | stimulate Gli signaling | – | effect on Hh signaling (relative expression of Gli1) ([2]; 5% FBS in DMEM): increase Hh signaling
2 | C[C@]12CC[C@H](O)C[C@@H]1CC[C@@H]1[C@@H]2CC[C@]2(C)[C@@H]([C@H](O)CCc3ccc(F)cc3)CC[C@@H]12 [Compound 2, (3S,5S,8R,9S,10S,13S,14S,17S)-17-((R)-3-(4-fluorophenyl)-1-hydroxypropyl)-10,13-dimethylhexadecahydro-1H-cyclopenta[a]phenanthren-3-ol] | – | – | effect on Hh signaling (relative expression of Gli1) ([2]; 5% FBS in DMEM): increase Hh signaling, although Compound 2 to a lesser degree than Compound 1; effect on Gli/Hh signaling in cells treated with Conditioned Medium (relative expression of Gli1) [2]: weak Hh antagonist
3 | C[C@]12CC[C@H](O)C[C@@H]1[C@@H](O)C[C@@H]1[C@@H]2CC[C@]2(C)[C@@H]([C@H](O)CCc3ccc(F)cc3)CC[C@@H]12 [Compound 5, (3S,5S,6S,8S,9S,10R,13S,14S,17S)-17-((R)-3-(4-fluorophenyl)-1-hydroxypropyl)-10,13-dimethylhexadecahydro-1H-cyclopenta[a]phenanthrene-3,6-diol] | stimulate Gli signaling | – | –
4 | CC[C@@](O)(CCc1cccnc1)[C@H]1CC[C@H]2[C@@H]3CC[C@H]4C[C@@H](O)CC[C@]4(C)[C@H]3CC[C@]12C [Compound 6, (3S,5S,8R,9S,10S,13S,14S,17S)-17-((R)-3-hydroxy-1-(pyridin-3-yl)pentan-3-yl)-10,13-dimethylhexadecahydro-1H-cyclopenta[a]phenanthren-3-ol] | – | – | effect on baseline expression of Gli ([2]; 5% FBS in DMEM, 10 μM, vs DMSO control (FIG. 8)): lowers the baseline expression of Gli; effect on Gli/Hh signaling in cells treated with Conditioned Medium (relative expression of Gli1) [2]: inhibits Gli signaling
5 | CC(C)CCC[C@](C)(O)[C@H]1CC[C@H]2[C@@H]3CC=C4C[C@@H](O)CC[C@]4(C)[C@H]3CC[C@@]21C [Compound 8, 20(S)-hydroxycholesterol] | – | induces allosteric activation of Hh signaling | –
6 | CC(C)CC[C@@H](O)[C@](C)(O)[C@H]1CC[C@H]2[C@@H]3CC=C4C[C@@H](O)CC[C@]4(C)[C@H]3CC[C@]12C [Compound 9, 20α,22(R)-dihydroxycholesterol] | – | blocks Hh signaling | –
7 | CCCCCC[C@](C)(O)[C@H]1CC[C@H]2[C@@H]3C[C@H](O)[C@H]4C[C@@H](O)CC[C@]4(C)[C@H]3CC[C@@]21C [Compound 10, (3S,5S,6S,8R,9S,10R,13S,14S,17S)-17-((S)-2-hydroxyoctan-2-yl)-10,13-dimethylhexadecahydro-1H-cyclopenta[a]phenanthrene-3,6-diol, reference compound] | stimulate Gli signaling | Hh activator | –
8 | C[C@]12CC[C@H](O)C[C@@H]1CC[C@@H]1[C@@H]2CC[C@@]2(C)[C@H]1CC[C@@H]2[C@](C)(O)CCc1ccc(F)cc1 [Compound 11, (3S,5S,8R,9S,10S,13S,14S,17S)-17-((R)-4-(4-fluorophenyl)-2-hydroxybutan-2-yl)-10,13-dimethylhexadecahydro-1H-cyclopenta[a]phenanthren-3-ol] | – | Hh inhibitors | –
9 | C[C@]12CC[C@H]3[C@@H](CC=C4C[C@@H](O)CC[C@@]43C)[C@@H]1CC[C@@H]2[C@](C)(O)CCc1cccnc1 [Compound 12, (3S,8S,9S,10R,13S,14S,17S)-17-((R)-2-hydroxy-4-(pyridin-3-yl)butan-2-yl)-10,13-dimethyl-2,3,4,7,8,9,10,11,12,13,14,15,16,17-tetradecahydro-1H-cyclopenta[a]phenanthren-3-ol] | – | Hh inhibitors | effect on TGFβ signaling (TGFβ signaling): blocks TGFβ signaling
10 | C[C@]12CC[C@H](O)C[C@@H]1CC[C@@H]1[C@@H]2CC[C@]2(C)[C@@H](C(CCc3ccc(F)cc3)=NO)CC[C@@H]12 [Compound 17, 3-(4-fluorophenyl)-1-((3S,5S,8R,9S,10S,13S,14S,17S)-3-hydroxy-10,13-dimethylhexadecahydro-1H-cyclopenta[a]phenanthren-17-yl)propan-1-one oxime] | – | – | effect on Hh signaling (relative expression of Gli1) ([3]; 5% FBS in DMEM): activator of Hh signaling; effect on conditioned medium induced Gli1 expression ([3]; CAPAN-1 CM, 2 hours pretreatment): further enhances the conditioned medium induced Gli1 expression
